EC50 data for 57 compounds are collected here from patent US20230012560A1, “HEPATITIS B ANTIVIRAL AGENTS” (TAIGEN BIOTECHNOLOGY CO., LTD., priority 2019, published 2023).

The experiment concerns HBV (HepAD38 cells). Briefly: Real-Time PCR Assay (extracellular HBV DNA from HepAD38 culture supernatants). Type of experiment: cell-based. Conditions: Hepatitis B virus, 120 h, compound treatment for 5 days without tetracycline, extracellular DNA in culture supernatant quantified by real-time PCR, read-out: EC50 (50% effective concentration). The protocol:
HepAD38 cells were seeded and cultured on 96-well plates. After incubation for 2 days, cells were fed with compound-containing media without tetracycline. After compound treatment for 5 days, culture supernatants were collected. Extracellular DNA was then extracted using LabTurbo DNA mini kit, and quantified by real-time PCR.
Real-time PCR was performed using an ABI QuantStudio 3 system in a 96-well optical plate format. The PCR mixture containing forward primer (5′-[…]-3′) (SEQ ID NO.1), reverse primer (5′-GGTGAGTGATTGGAGGTTG-3′) (SEQ ID NO.2) and Luna Universal qPCR Master Mix in a final volume of 24 μl was incubated at 95° C. for 10 min followed by 45 cycle of incubation at 95° C. for 10 s and 60° C. for 10 s. Regression analysis was performed using GraphPad Prism 5 to calculate the 50% effective concentration (EC50) values.
In general terms: Real-time PCR tracks product formation cycle by cycle.

For the compound `CNC(=O)C(=O)N1CC[C@@H](NS(=O)(=O)c2cn(C3CC3)c(C(=O)Nc3ccc(F)c(F)c3)c2F)C1` [Compound 49], the EC50 was less than 100 nM. The same measure for `CCNC(=O)C(=O)N1CC[C@@H](NS(=O)(=O)c2cn(C)c(C(=O)Nc3ccc(F)c(F)c3)c2F)[C@@H](F)C1` [Compound 96]: less than 100 nM; for `CNC(=O)C(=O)N1CC[C@@H](NS(=O)(=O)c2cn(C3CCCC3)c(C(=O)Nc3ccc(F)c(F)c3)c2F)C1` [Compound 53]: 300 to 1000 nM; for `CNS(=O)(=O)N1CCC[C@@H](NS(=O)(=O)c2cn(C)c(C(=O)Nc3cccc(C(F)(F)F)c3)c2F)C1` [Compound 21]: less than 100 nM. Regarding `Cn1cc(S(=O)(=O)N[C@@H]2CCN(S(=O)(=O)c3ccc(F)cc3)C2)c(F)c1C(=O)Nc1ccc(F)c(F)c1` [Compound 13], the EC50 is less than 100 nM. As for `CNS(=O)(=O)NC1CCN(S(=O)(=O)c2cn(C)c(C(=O)Nc3cc(F)c(F)c(F)c3)c2F)CC1` [Compound 62], the EC50 is 300 to 1000 nM. In the case of `CNC(=O)C(=O)N1CC[C@@H](NS(=O)(=O)c2c(F)c(C(=O)Nc3cc(F)c(F)c(F)c3)n(C)c2Cl)C1` [Compound 43], the EC50 is less than 100 nM. As for `Cn1cc(S(=O)(=O)N[C@@H]2CCN(C(=O)C(=O)NCCO)C2)c(F)c1C(=O)Nc1cc(F)c(F)c(F)c1` [Compound 37], the EC50 is less than 100 nM.

As to `CNS(=O)(=O)N1CC[C@@H](NS(=O)(=O)c2cn(C)c(C(=O)Nc3ccc(F)c(C(F)F)c3)c2F)C1` [Compound 16], the EC50 was less than 100 nM. `CNC(=O)C(=O)N1CC[C@@H](NS(=O)(=O)c2cn(C)c(C(=O)Nc3ccc(F)c(Cl)c3)c2F)C1` [Compound 41]: the EC50 was less than 100 nM. Next, `CNC(=O)C(=O)N1CC[C@@H](NS(=O)(=O)c2cn(C)c(C(=O)Nc3ccc(F)c(C(F)F)c3)c2F)C1` [Compound 40]: less than 100 nM; `CCNC(=O)C(=O)N1CCC(NS(=O)(=O)c2cn(C)c(C(=O)Nc3cccc(Cl)c3)c2F)CC1` [Compound 72]: less than 100 nM; `O=C(NC1CC1)C(=O)N1CCC(NS(=O)(=O)c2c(F)c(C(=O)Nc3cc(F)c(F)c(F)c3)n3c2CCC3)CC1` [Compound 77]: less than 100 nM. `CNS(=O)(=O)N1CCC(NS(=O)(=O)c2cn(C)c(C(=O)Nc3ccc(F)c(F)c3)c2F)C(F)(F)C1` (stereo not drawn) [Compound 27]: the EC50 was less than 100 nM. The same measure for `CNS(=O)(=O)N1CCN(S(=O)(=O)c2cn(C)c(C(=O)Nc3cc(F)c(F)c(F)c3)c2F)CC1` [Compound 66]: 100 to 300 nM; for `CC[C@@H](C)NC(=O)C(=O)N1CCC(NS(=O)(=O)c2cn(C)c(C(=O)Nc3cc(F)c(F)c(F)c3)c2F)CC1` [Compound 75]: less than 100 nM. Take `CNC(=O)C(=O)N1CC[C@@H](NS(=O)(=O)c2cn(CC(F)F)c(C(=O)Nc3ccc(F)c(F)c3)c2F)C1` [Compound 48]: the EC50 was less than 100 nM. For `CCNC(=O)C(=O)N[C@@H]1CCN(S(=O)(=O)c2cn(C)c(C(=O)Nc3cc(F)c(F)c(F)c3)c2F)C1` [Compound 61], the EC50 fell in the range of 300 to 1000 nM. `CNS(=O)(=O)N1CC[C@@H](NS(=O)(=O)c2c(F)c(C(=O)Nc3ccc(F)c(F)c3)n3c2CCCC3)C1` [Compound 11]: the EC50 fell in the range of 100 to 300 nM. With `CCNC(=O)C(=O)N1CCC(NS(=O)(=O)c2cn(C)c(C(=O)Nc3cc(F)c(F)c(F)c3)c2Cl)C2(CC2)C1` (stereo not drawn) [Compound 87], the EC50 was less than 100 nM. The same measure for `CNS(=O)(=O)N[C@@H]1CCN(S(=O)(=O)c2cn(C)c(C(=O)Nc3cc(F)c(F)c(F)c3)c2F)C1` [Compound 60]: 300 to 1000 nM.

With `Cn1cc(S(=O)(=O)N[C@@H]2CCN(S(=O)(=O)C3(C)CC3)C2)c(F)c1C(=O)Nc1ccc(F)c(F)c1` [Compound 2], the EC50 was less than 100 nM. For the compound `CNC(=O)C(=O)N1CCC2CC2(NS(=O)(=O)c2cn(C)c(C(=O)Nc3cc(F)c(F)c(F)c3)c2F)C1` (stereo not drawn) [Compound 59], the EC50 is less than 100 nM.

With `CCNC(=O)C(=O)N1CCC(NS(=O)(=O)c2c(C)c(C(=O)Nc3cc(F)c(F)c(F)c3)n3c2CCC3)CC1` [Compound 79], the EC50 was in the range of 300 to 1000 nM. On to `CCNC(=O)C(=O)N1CCC(NS(=O)(=O)c2cn(C)c(C(=O)Nc3ccc(F)c(Cl)c3F)c2F)CC1` [Compound 74], for which the EC50 is less than 100 nM. As to `CNS(=O)(=O)N1CC[C@@H](NS(=O)(=O)c2c(F)c(C(=O)Nc3ccc(F)c(F)c3)n(C)c2Br)C1` [Compound 8], the EC50 was less than 100 nM. For `CNS(=O)(=O)N1CCC(C)(NS(=O)(=O)c2cn(C)c(C(=O)Nc3ccc(F)c(F)c3)c2F)CC1` [Compound 25], the EC50 was less than 100 nM. In the case of `CCNC(=O)C(=O)N1CCC(NS(=O)(=O)c2cn(C)c(C(=O)Nc3ccc(F)c(F)c3)c2F)C(C)C1` (stereo not drawn) [Compound 83], the EC50 is less than 100 nM. As to `CCNC(=O)C(=O)N1CCC(NS(=O)(=O)c2cn(C)c(C(=O)Nc3cc(F)c(F)c(F)c3)c2Cl)CC1` [Compound 76], the EC50 is less than 100 nM.

Consider `CNC(=O)C(=O)N1CC[C@@H](NS(=O)(=O)c2c(F)c(C(=O)Nc3cc(F)c(F)c(F)c3)n3c2CCCC3)C1` [Compound 46], for which the EC50 lay within 100 to 300 nM. The same measure for `CCCNC(=O)C(=O)N1CC[C@@H](NS(=O)(=O)c2cn(C)c(C(=O)Nc3cc(F)c(F)c(F)c3)c2F)C(F)(F)C1` [Compound 98]: less than 100 nM; for `CCn1cc(S(=O)(=O)N[C@@H]2CCN(S(=O)(=O)NC)C2)c(F)c1C(=O)Nc1ccc(F)c(F)c1` [Compound 17]: less than 100 nM; for `CCNC(=O)C(=O)N1CCC(NS(=O)(=O)c2cn(C)c(C(=O)Nc3cc(F)c(F)c(F)c3)c2F)CC1` [Compound 69]: less than 100 nM.

As to `C=CCn1cc(S(=O)(=O)N[C@@H]2CCN(C(=O)C(=O)NC)C2)c(F)c1C(=O)Nc1ccc(F)c(F)c1` [Compound 52], the EC50 was less than 100 nM.

On to `CNC(=O)C(=O)N1CC[C@@H](NS(=O)(=O)c2c(F)c(C(=O)Nc3ccc(F)c(F)c3)n(C)c2C)C1` [Compound 44], for which the EC50 is less than 100 nM.

With `Cn1cc(S(=O)(=O)NC2CCN(S(=O)(=O)C3(C)CC3)CC2)c(F)c1C(=O)Nc1ccc(F)c(F)c1` [Compound 24], the EC50 is less than 100 nM. On to `CCNC(=O)C(=O)N1CCC(NS(=O)(=O)c2cn(C)c(C(=O)Nc3ccc(F)c(C)c3)c2F)CC1` [Compound 71], for which the EC50 is less than 100 nM.

On to `CCNC(=O)C(=O)N1CCC(NS(=O)(=O)c2c(F)c(C(=O)Nc3ccc(F)c(F)c3)n(C)c2C)CC1` [Compound 80], for which the EC50 is less than 100 nM. Next, `CCn1cc(S(=O)(=O)N[C@@H]2CCCN(S(=O)(=O)NC)C2)c(F)c1C(=O)Nc1ccc(F)c(F)c1` [Compound 22]: less than 100 nM. For the compound `COCCS(=O)(=O)N1CC[C@@H](NS(=O)(=O)c2cn(C)c(C(=O)Nc3ccc(F)c(F)c3)c2F)C1` [Compound 4], the EC50 is less than 100 nM.

In the case of `CCNC(=O)C(=O)N1CCC(NS(=O)(=O)c2cn(C)c(C(=O)Nc3cc(F)c(F)c(F)c3)c2F)CC12CC2` (stereo not drawn) [Compound 88], the EC50 was less than 100 nM. Turning to `C[C@@H](NC(=O)C(=O)N1CC[C@@H](NS(=O)(=O)c2cn(C)c(C(=O)Nc3cc(F)c(F)c(F)c3)c2F)C1)C(F)(F)F` [Compound 39], the EC50 was less than 100 nM. For `CCCn1cc(S(=O)(=O)N[C@@H]2CCN(C(=O)C(=O)NC)C2)c(F)c1C(=O)Nc1ccc(F)c(F)c1` [Compound 51], the EC50 was less than 100 nM. As for `CNS(=O)(=O)N1CC[C@@H](NS(=O)(=O)c2cn(C)c(C(=O)Nc3ccc(F)c(F)c3)c2F)C1` [Compound 5], the EC50 was less than 100 nM.

In the case of `CCNC(=O)C(=O)N1CCC(NS(=O)(=O)c2cn(/C=C/F)c(C(=O)Nc3cc(F)cc(Cl)c3)c2F)CC1` [Compound 90], the EC50 was less than 100 nM.

`Cn1cc(S(=O)(=O)NC2CCN(C(=O)C(=O)NC3COC3)CC2(F)F)c(F)c1C(=O)Nc1ccc(F)c(F)c1` (stereo not drawn) [Compound 92]: the EC50 was less than 100 nM. `CNC(=O)C(=O)N1CC2CC2(NS(=O)(=O)c2cn(C)c(C(=O)Nc3cc(F)c(F)c(F)c3)c2F)C1` (stereo not drawn) [Compound 55]: the EC50 is less than 100 nM.

For `CCNC(=O)C(=O)N1CC[C@@H](NS(=O)(=O)c2c(F)c(C(=O)Nc3cc(F)c(F)c(F)c3)n3c2CCC3)C1` [Compound 45], the EC50 was less than 100 nM. For the compound `CNS(=O)(=O)N1CCCC(C)(NS(=O)(=O)c2cn(C)c(C(=O)Nc3ccc(F)c(F)c3)c2F)C1` (stereo not drawn) [Compound 20], the EC50 was less than 100 nM. On to `Cn1cc(S(=O)(=O)N[C@@H]2CCN(S(=O)(=O)/C=C/c3ccccc3)C2)c(F)c1C(=O)Nc1ccc(F)c(F)c1` [Compound 14], for which the EC50 lay within 100 to 300 nM. For `CC(=O)OCCNC(=O)C(=O)N1CC[C@@H](NS(=O)(=O)c2cn(C)c(C(=O)Nc3cc(F)c(F)c(F)c3)c2F)C1` [Compound 38], the EC50 was less than 100 nM. With `CCNC(=O)C(=O)NC1CCN(S(=O)(=O)c2cn(C)c(C(=O)Nc3cc(F)c(F)c(F)c3)c2F)CC1` [Compound 63], the EC50 was 100 to 300 nM. `CCNC(=O)C(=O)N1CCC(NS(=O)(=O)c2c(F)c(C(=O)Nc3cc(F)c(F)c(F)c3)n(C)c2Br)CC1` [Compound 81]: the EC50 is less than 100 nM. For `CCONC(=O)C(=O)N1CC[C@@H](NS(=O)(=O)c2cn(C)c(C(=O)Nc3cc(F)c(F)c(F)c3)c2F)C1` [Compound 35], the EC50 is less than 100 nM. Next, `CCNC(=O)C(=O)N1CC(NS(=O)(=O)c2cn(C)c(C(=O)Nc3cc(F)c(F)c(F)c3)c2F)C1` [Compound 56]: less than 100 nM; `Cn1cc(S(=O)(=O)NC2CCN(C(=O)C(=O)NC3(C)CC3)CC2(F)F)c(Cl)c1C(=O)Nc1cc(F)c(F)c(F)c1` (stereo not drawn) [Compound 93]: less than 100 nM.

As for `CCNC(=O)C(=O)N1CC[C@@H](NS(=O)(=O)c2cn(C)c(C(=O)Nc3ccc(F)c(F)c3)c2F)C(F)(F)C1` [Compound 94], the EC50 was less than 100 nM.
